Four molecules from patent US8034767B2, “Method for producing purine nucleosides and nucleotides by fermentation using a bacterium belonging to the genus Escherichia or Bacillus” (priority 2006, dated 2011) can be followed below.

Assay [1] relates to E. coli strain TG1. As to the kind of experiment: MIC of purine base analogues on M9 glucose minimal agar plates, parental strain. In kind it is cell-based. The conditions noted are these: Escherichia coli, 10^5 to 10^6 cells spotted, growth after 44 h at 37° C. How it is done:
(§1) The minimal inhibitory concentrations (MIC) of purine base analogues for the strain TG1::PnlpD-yeaS and the parental strain TG1 were determined on M9 glucose minimal agar plates containing graded concentrations of inhibitors. The plates were spotted with 10^5 to 10^6 cells from an overnight culture grown in a minimal medium. The growth was estimated after 44 h incubation at 37° C.

Assay [2] deals with E. coli strain TG1::PnlpD-yeaS. Nature of the assay: MIC of purine base analogues on M9 glucose minimal agar plates, yeaS-overexpressing strain. In kind it is cell-based. The conditions noted are these: Escherichia coli, 44 h, read-out: MIC for E. coli strain TG1::PnlpD-yeaS. On the procedure: as §1

Take `Nc1nc(N)c2[nH]cnc2n1` [2,6-diaminopurine]: the minimal inhibitory concentration (MIC) – broadly, the least concentration at which growth counts as inhibited – is 200 µg/mL in assay [1] and 600 µg/mL in assay [2].
Regarding `Sc1ncnc2nc[nH]c12` [6-mercaptopurine], the minimum inhibitory concentration (MIC) in assay [1] worked out at 50 µg/mL; in assay [2], 150 µg/mL.
In the same order, the values of `Nc1nc2nc[nH]c2c(=S)[nH]1` [6-thioguanine] are 30 µg/mL and 450 µg/mL.
For `Nc1ncnc2nn[nH]c12` [8-azaadenine] the same measures were 100 µg/mL and 250 µg/mL.
